Data from patent US9198893B2, “Combination antitumor therapy” (GALERA LABS, LLC, priority 2008, dated 2015).

Columns and labels:
[1] = Activity of superoxide dismutase mimetic toward hydrogen peroxide (selectivity); assay type: biochemical
CT26 mouse colon tumor = experiment: Mouse colon tumor model, first experiment (CT26 fragments implanted in BALB/c mice); assay type: in vivo; settings: SOD mimetic 6 mg/kg IP twice daily from day 6, combined with gemcitabine 80 mg/kg IP on days 6, 9, 12, 15; compared with gemcitabine alone
Protocol: A. In a first experiment, fragments of CT26 mouse colon tumor were implanted in female BALB/c mice and allowed to grow for 6 days to a size of about 110 mg (107-115 mg).
On this day, day 6, mice were administered 6 mg/kg of KM4403 or KM4419 intraperitoneally (IP) and dosing was continued twice daily for the duration of the study.
In some groups, gemcitabine was administered on days 6, 9, 12 and 15 at a dosage of 80 mg/kg, also via IP, 10 minutes after the administration of KM4403 or KM4419.

[2] = combination with interleukin-2; Samlowski et al., Nature Medicine (2003); cited from earlier work
C26 colon tumor = experiment: Mouse colon tumor model, second experiment (C26 fragments implanted in BALB/c mice); assay type: in vivo; settings: KM4419 10 mg/kg or 20 mg/kg twice daily from day 7, combined with gemcitabine 120 mg/kg IP on days 7, 13, 16, both KM4419 dosage levels, FIG. 1
Protocol: B. In a second experiment, fragments of C26 colon tumor were implanted in female BALB/c mice and grown until day 7 at which point they averaged 123 mg.
Groups 1 and 2 (n=8) were given 10 mg/kg or 20 mg/kg of KM4419 twice daily starting at day 7.
In groups 3 and 4 (n=8), gemcitabine was administered at 120 mg/kg or 160 mg/kg IP on days 7, 13 and 16.
In groups 5 and 6 (n=8), both gemcitabine and KM4419 were administered according to the foregoing regimens. Gemcitabine was administered 10 minutes after KM4419 in these groups. The levels of KM4419 were 10 mg/kg and 20 mg/kg, respectively, and the dose of gemcitabine was 120 mg/kg.

[3] = system: human A549 non-small lung carcinoma cells; experiment: Non-small cell lung cancer tumor model (A549 cells implanted into flanks of BALB/c mice); assay type: in vivo; settings: KM4419 30 mg/kg IP on days 9-23, combined with paclitaxel 12.5 mg/kg IP on days 9 and 13; compared with either drug alone; FIG. 2
Protocol: In a manner similar to that of Example 1, human A549 non-small lung carcinoma cells were implanted into the flanks of female BALB/c mice, and the tumors were allowed to grow until day 9. Group 1 was administered only vehicle. Group 2 (n=10) was administered only paclitaxel at 12.5 mg/kg IP on days 9 and 13. In group 3 (n=10), the mice were administered 30 mg/kg of KM4419 IP on days 9-23. In group 4 (n=10), a combination of these protocols was administered.

activity toward hydrogen peroxide [1]	Compound	tumor size (CT26 mouse colon tumor)	further results
significant activity	CC(C)c1cc(C(=O)O)c([O-])c(C(C)C)c1.CC(C)c1cc(C(=O)O)c([O-])c(C(C)C)c1.[Cu+2] [CuDIPS, copper [II] diisopropylsalicylate]	–	–
–	[Cl][Mn-5]1234([Cl])[n+]5c6cccc5C[NH+]1[C@@H]1CCCC[C@H]1[NH+]2CC[NH+]3[C@@H]1CCCC[C@H]1[NH+]4C6 (stereo partly drawn) [KM4403]	decreased tumor size	antitumor effect of IL-2 in combination treatment [2]: potentiates the antitumor effect of IL-2
–	[Cl][Mn-5]1234([Cl])[n+]5c6cccc5C[NH+]1[C@H]1CCCC[C@@H]1[NH+]2CC[NH+]3[C@H]1CCCC[C@@H]1[NH+]4C6 (stereo partly drawn) [KM4419]	decreased tumor size	tumor recurrence (C26 colon tumor): delayed recurrence; tumor size (C26 colon tumor; compared with gemcitabine alone): decreased the tumor size more effectively than gemcitabine alone; effectiveness on tumor growth [3]: more effective than either drug taken alone
significant activity	mangafodipir	–	–

Compound	activity toward hydrogen peroxide [1]	tumor size (CT26 mouse colon tumor)	further results
manganese [III] tetrakis-(5,10,15,20)-benzoic acid porphyrin [MnTBAP]	significant activity	–	–
